Consider 3 molecules from patent publication US20090253745A1, “MODULATORS OF OCULAR OXIDATIVE STRESS” (SIRION THERAPEUTICS, INC., priority 2007, published 2009).

Series [1] relates to eyeglobes of mice. As to the kind of experiment: Ex vivo lens toxicity test, whole eyeglobes cultured overnight. As to conditions: brief treatment (10 min) with 100% ethanol, positive control. The protocol:
(§1) FIG. 3. Ex vivo lens toxicity test of TAPP1. The eyeglobes of mice (aged 42 days) were cultured overnight either with control solution (media containing 45% β-cyclodextrin) or TAPP1 (TAPP1 in media containing 45% β-cyclodextrin), at 37° C. overnight, and in 95% air/5% CO2. […] To determine the effects of TAPP1 on isolated lenses, intact lenses were dissected from wild-type mouse eyeglobes, and incubated in DMEM media in a 96 well tissue culture plate. Groups of 3-6 lenses were incubated in 200 μl of media alone (negative control), 4% (2-hydroxypropyl)-β-cyclodextrin (carrier control), 8 mM hydrogen peroxide (H2O2, positive control for lens toxicity), 4 mM TAPP1-O (free radical form), 4 mM TAPP1-R (reduced form), and 4 mM of the two products of TAPP1-R hydrolysis (HP-1 and HP-2), respectively. β-cyclodextrin was included as a carrier control because all of the stock solutions contained 45% (2-hydroxypropyl)-β-cyclodextrin. The samples were incubated in 5% CO2 incubator at 37 C for 2 days.
(§2) The TAPP compositions are intended for topical delivery to the anterior portion of the eye. […] Morphological or anatomical effects are determined by comparison of TAPP-treated samples to samples incubated with either the TAPP vehicle or samples which are exposed (10 min treatment) to 100% ethanol (a positive control for lens toxicity). […]

Series [2] concerns intact lenses dissected from wild-type mouse eyeglobes. As to the kind of experiment: Ex vivo lens toxicity test, isolated lenses incubated 2 days. To be noted: 8 mM, 37 C, positive control for lens toxicity. How it is done:
as §1, §2

Series [3] is described as follows: Pharmacokinetics and ocular tissue distribution of total radioactivity after single topical dose in rabbit. Type of series: in vivo, New Zealand White rabbits. The protocol: (§3) FIG. 14. Pharmacokinetics and ocular tissue distribution of total radioactivity following single topical dose administration of [^14C]Compound 14 in rabbit. Four New Zealand White rabbits, age 3-4 months, weight 2.7 to 3.2 kg were used for this study. The rabbits were anesthetized and drug was administered as described above. At each specified time post dosing (0.5, 1, 2, and 4 hr), blood was collected from the ear vein of one rabbit and recovered serum volume was recorded. Rabbits were sacrificed by asphyxiation and both eyeballs were enucleated. Each eyeball was rinsed in 10 ml fresh PBS to wash off unabsorbed drug. The following tissues were harvested from each eye: anterior segment, lens, vitreous body, retina and posterior segment (without retina). Total radioactivity of each tissue and in serum was determined using a liquid scintillation analyzer (Packard Tri-Carb 2100TR). CPM was converted to DPM, and quantity of the drug (pmole) absorbed in each tissue was calculated based on specific activity (average DPM in tissues from left and right eyes). The serum level of the drug was determined as concentration (pmole/ml). [^14C]Compound 14 was rapidly taken into ocular tissues (within ˜15 min) and peak drug concentration in all tissues occurred at ˜0.5 hr.
as §3, with “Four” for “FIG. 14. Pharmacokinetics and ocular tissue distribution of total radioactivity following single topical dose administration of [^14C]Compound 14 in rabbit. Four”, “and an ophthalmic formulation of Compound 14” for “and drug”, “administered topically to the eye.” for “administered as described above.”

Series [4] can be described thus: Pharmacokinetics and ocular tissue distribution of total radioactivity after single topical dose in mice. The format is in vivo, ABCA4+/−/SOD+/− mice. The protocol: (§4) FIG. 13. Pharmacokinetics and ocular tissue distribution of total radioactivity following single topical dose administration of [^14C]Compound 14 in mice. Seven ABCA4+/−/SOD+/− mice were used for this study. The mice were anesthetized and drug was administered as described above. At each specified time post dosing (0 min, 15 min, 30 min, 1 hr, 2 hr, 4 hr and 6 hr), one mouse was sacrificed by cervical dislocation and both eyeballs were enucleated. Each eyeball was rinsed in 1 ml fresh PBS to wash off unabsorbed drug. The right eye was analyzed intact. From the left eye, the following tissues were harvested: lens, anterior segment, retina and posterior segment. Total radioactivity of all tissues was determined using a liquid scintillation analyzer. […] Peak drug concentration in all tissues occurred at ˜1 hr.
as §4, with “Seven” for “FIG. 13. Pharmacokinetics and ocular tissue distribution of total radioactivity following single topical dose administration of [^14C]Compound 14 in mice. Seven”, “and an ophthalmic formulation of Compound 14, prepared as described above,” for “and drug”, “administered topically to the eye.” for “administered as described above.”

For series [5], the system named is oxidation of ABTS to ABTS^•+ radical cation by metmyoglobin. Nature of the series: In vitro anti-oxidant assay: inhibition of metmyoglobin-mediated oxidation of ABTS to ABTS•+ (absorbance at 750 nm). Type of series: biochemical.

pIC50: −log10 of the molar value.

With `CCO` [ethanol, reference compound], in series [1], the “cataract formation in eyeglobes” value is listed as “caused cataract formation”.

With `OO` [Compound H2O2, hydrogen peroxide], the “cataract in isolated lenses” value in series [2] is “caused obvious cataract”.

Broadly, the pIC50 is −log10 of the IC50, conventionally taken in molar units. Regarding `CC1(C)CC(OCCCCCC(O)/C=C/C(=O)O)CC(C)(C)N1O` (stereo not shown) [[^14C]Compound 14], in series [3], the “amount in vitreous body” value was “intermediate amount”; the “ocular tissues with the highest recovery” value is “anterior and posterior segments”; the “recovery in retina and lens, lower than in anterior and posterior segments” value is “approximately 10 fold”; the “time of peak drug concentration in all tissues” value is ~0.5 h. The “time until uptake into ocular tissues” value in series [3] is ≤ 15 min. In addition, in series [4], the “ocular tissues with lower concentrations” value was “lens and retina”; the “ocular tissues with the highest concentrations” value is “anterior and posterior segments”; the “time of peak drug concentration in all tissues” value is ~1 h; the “time until uptake into ocular tissues” value was ≤ 15 min. Besides, in series [5] (0, 5, 10, 20, 50, 100, 200 and 500 μM), the “dose-response of anti-oxidation activity” value was “dose-dependent anti-oxidation activity”. In addition, the negative logarithm of the IC50 (pIC50) in series [5] (0-500 μM compound, 15 μM ABTS, 2.5 μM metmyoglobin, 80 μM hydrogen peroxide, room temperature) was ~5.00.
